Reference: patent publication US8772318B2, “Methods and compositions related to targeting monoacylglycerol lipase” (The Scripps Research Institute, priority 2008, dated 2014)

Columns and labels:
FAAH = target: T1, FAAH (Mus musculus, UniProt O08914); test: FAAH activity of brain membranes from treated mice (competitive ABPP, oleamide substrate assay); format: in vivo; details: URB597 10 mg/kg, i.p.
T1 construct: from tissue; host or cells: mouse brain membrane fraction
T1 sequence (O08914 1-579): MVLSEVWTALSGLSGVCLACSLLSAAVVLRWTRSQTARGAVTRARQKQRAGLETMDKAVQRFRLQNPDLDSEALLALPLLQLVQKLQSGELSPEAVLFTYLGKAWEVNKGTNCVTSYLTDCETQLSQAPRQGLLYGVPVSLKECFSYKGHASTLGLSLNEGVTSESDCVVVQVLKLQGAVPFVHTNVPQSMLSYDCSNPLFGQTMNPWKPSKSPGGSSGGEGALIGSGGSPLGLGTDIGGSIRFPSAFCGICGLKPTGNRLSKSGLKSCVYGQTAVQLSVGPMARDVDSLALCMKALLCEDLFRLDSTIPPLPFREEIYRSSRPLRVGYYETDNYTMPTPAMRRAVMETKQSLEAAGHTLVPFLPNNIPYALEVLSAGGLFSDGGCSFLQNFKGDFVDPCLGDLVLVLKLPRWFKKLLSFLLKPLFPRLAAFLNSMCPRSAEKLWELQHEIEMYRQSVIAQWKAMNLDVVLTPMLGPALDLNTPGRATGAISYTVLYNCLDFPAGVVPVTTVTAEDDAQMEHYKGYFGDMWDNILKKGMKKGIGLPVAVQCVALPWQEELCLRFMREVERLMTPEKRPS
Experimental: Enzyme activity assays. Briefly, 2-AG (100 μM) was incubated with mouse brain membrane (20 μg) or recombinant MAGL in COS7 cells (0.1 μg) in PBS (200 μl) at room temperature for 10 min. The reactions were quenched by the addition of 500 μL 2:1 v/v CHCl3:MeOH, doped with 0.5 nmol PDA, vortexed, then centrifuged (1,400×g, 3 min) to separate the phases. 30 ul of the resultant organic phase was injected onto an Agilent 1100 series LC-MSD SL instrument. […] Mobile phase A was composed of 95:5 v/v H2O:MeOH, and mobile phase B was composed of 60:35:5 v/v/v i-PrOH:MeOH:H2O. 0.1% ammonium hydroxide was included to assist in ion formation in negative ionization mode. […] Hydrolysis products were quantified by measuring the area under the peak in comparison to the PDA standard. ^13C-oleamide or AEA hydrolysis activity was determined using mouse brain membrane (50 μg) or recombinant FAAH in COST cells (5 μg), respectively, in PBS (100 μl). […] DAGLβ hydrolysis activity was determined using recombinant DAGLβ in HEK293 cells (50 μg) in PBS (100 μl). […]
Competitive activity-based protein profiling (ABPP) experiments. […] After 30 min at room temperature, the reactions were quenched with 4×SDS-PAGE loading buffer, boiled for 5 min at 90° C., subjected to SDS-PAGE, and visualized in-gel using a flatbed fluorescence scanner. […]

[1] = tested on: brain levels of 2-AG, arachidonic acid, NAEs, MAGs, free fatty acids; test: Measurement of brain lipids in treated mice; format: in vivo, mouse; details: URB597 10 mg/kg, i.p.
Experimental: Measurement of brain lipids. One half brain was weighed and subsequently Dounce homogenized in 2:1:1 v/v/v CHCl3:MeOH:Tris pH 8.0 (8 ml) containing standards for N-acylethanolamine (NAE), monoacylglycerol (MAG), or free fatty acid (FFA) measurements (200 pmol d4-OEA, 20 pmol d4-AEA, 400 pmol C15:0-MAG, and 4 nmol PDA). The mixture was vortexed and then centrifuged (1,400×g, 10 min). The organic layer was removed, CHCl3 was added until the final volume was again 8 ml, and the extraction was repeated. The combined organic extracts were dried under a stream of N2 and resolubilized in 2:1 v/v CHCl3:MeOH (120 μl). 30 uL and 15 uL of resolubilized lipid were injected for positive mode (MAG and NAE) and negative mode (free fatty acid) measurements, respectively. Lipid measurements were performed by LC-MS using the same instrument and solvents as described above. Solvent modifiers such as 0.1% formic acid or 0.1% ammonium hydroxide were included to assist in ion formation in positive and negative ionization mode, respectively. For positive mode measurements, the flow rate for each run started at 0.1 ml/min for 5 min. […] MAGs, NAEs, and FFAs were quantified by measuring the area under the peak in comparison to the C15:0 or deuterated standards. […]

NC(=O)c1cccc(-c2cccc(OC(=O)NC3CCCCC3)c2)c1 [URB597]
brain FAAH activity (FAAH): completely inhibited | brain 2-AG or arachidonic acid levels [1]: without altering | brain anandamide and other NAEs [1]: significant elevations
